# Test results as given in article PMC12040184, “Zebrafish Polymerase Theta and human Polymerase Theta: Orthologues with homologous function” (PLOS One, 2025).
# T1: hPol θ PD (Homo sapiens, UniProt O75417)
# T1 construct: gene POLQ; pSUMO3 (POLQM1) vector, 6xHis-SUMO tag cut off; E. coli; ~90 kDa
# T1 sequence (O75417 1791-2590): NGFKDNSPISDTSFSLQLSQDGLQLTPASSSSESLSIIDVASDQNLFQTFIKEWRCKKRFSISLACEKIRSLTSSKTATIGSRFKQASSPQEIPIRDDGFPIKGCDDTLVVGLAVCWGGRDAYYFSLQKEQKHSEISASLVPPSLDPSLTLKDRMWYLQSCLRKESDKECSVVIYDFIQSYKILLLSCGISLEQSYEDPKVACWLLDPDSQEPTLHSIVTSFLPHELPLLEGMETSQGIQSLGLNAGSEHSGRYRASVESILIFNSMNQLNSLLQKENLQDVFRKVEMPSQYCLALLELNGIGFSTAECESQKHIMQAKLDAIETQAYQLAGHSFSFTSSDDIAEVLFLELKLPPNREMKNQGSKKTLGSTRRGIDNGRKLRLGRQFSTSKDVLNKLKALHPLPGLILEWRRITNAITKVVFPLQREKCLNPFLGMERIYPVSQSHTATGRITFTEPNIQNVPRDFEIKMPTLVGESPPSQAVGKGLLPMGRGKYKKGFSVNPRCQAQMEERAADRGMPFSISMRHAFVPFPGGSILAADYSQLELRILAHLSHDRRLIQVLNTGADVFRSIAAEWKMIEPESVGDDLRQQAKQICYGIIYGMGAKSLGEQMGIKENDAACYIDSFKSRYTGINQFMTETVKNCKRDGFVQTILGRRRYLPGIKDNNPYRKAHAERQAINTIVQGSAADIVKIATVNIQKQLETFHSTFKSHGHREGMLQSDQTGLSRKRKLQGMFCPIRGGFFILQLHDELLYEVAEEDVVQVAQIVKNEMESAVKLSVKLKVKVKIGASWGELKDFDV
# T2: zPol theta PD (DNA polymerase theta polymerase domain) (zebrafish, UniProt F1Q4P4 1832-2576)
# T2 sequence: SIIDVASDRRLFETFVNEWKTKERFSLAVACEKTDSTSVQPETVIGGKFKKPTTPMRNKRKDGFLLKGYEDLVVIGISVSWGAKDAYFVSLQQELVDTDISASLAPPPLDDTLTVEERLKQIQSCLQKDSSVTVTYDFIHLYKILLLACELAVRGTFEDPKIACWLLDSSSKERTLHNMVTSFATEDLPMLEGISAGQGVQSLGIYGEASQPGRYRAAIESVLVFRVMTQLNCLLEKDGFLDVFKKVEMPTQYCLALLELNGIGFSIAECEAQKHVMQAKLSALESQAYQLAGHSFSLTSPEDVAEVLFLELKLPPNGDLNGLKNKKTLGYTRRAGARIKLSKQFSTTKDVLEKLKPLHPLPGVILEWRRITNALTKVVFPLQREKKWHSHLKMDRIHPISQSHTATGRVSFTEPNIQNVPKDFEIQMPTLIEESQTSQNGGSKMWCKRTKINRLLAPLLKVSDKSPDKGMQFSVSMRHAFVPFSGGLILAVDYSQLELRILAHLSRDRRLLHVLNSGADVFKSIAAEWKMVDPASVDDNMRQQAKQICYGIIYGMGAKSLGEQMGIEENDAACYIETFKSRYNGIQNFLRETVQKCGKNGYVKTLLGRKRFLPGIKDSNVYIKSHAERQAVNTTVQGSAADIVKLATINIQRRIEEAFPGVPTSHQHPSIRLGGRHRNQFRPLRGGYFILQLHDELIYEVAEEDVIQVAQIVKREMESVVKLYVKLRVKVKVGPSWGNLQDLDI
# B1: 25/40 dsDNA undamaged (dsDNA)
# DNA 1: TTTGCCTTGACCATGTAACAGAGAG
# DNA 2: TCTCTTCTCTCACTCACGCTCTCTGTTACATGGTCAAGGC
# Key:
# hPol θ PD = biological target: T1, hPol θ PD; assay: primer extension, denaturing gel; format: biochemical
# [1] = biological target: T2, zPol theta PD (DNA polymerase theta …); assay: EMSA; 10 nM DNA, 0-1000 nM protein; binding buffer (composition not given in the material), 1 h at room temperature, 6% native PAGE; conditions: protein: recombinant; tags: 6xHis-SUMO, cleaved off (untagged); label: 5'-6-FAM on strand 1 (25-mer primer); primer-template, 22 bp; 5' overhang 18 nt on template, 3 nt unpaired 5' TTT on primer
molecule,measurement,setting,value
Nc1ncnc2c1ncn2[C@H]1C[C@H](O)[C@@H](COP(=O)(O)OP(=O)(O)OP(=O)(O)O)O1 [dATP],"primer extension, denaturing gel","hPol θ PD; CPD (T-T dimer) 24/33 DNA, 10 mM MgCl2 or MnCl2, pH 8.0, 37 °C, single turnover",Both enzymes were able to readily insert opposite a T-T dimer
Nc1ccn([C@H]2C[C@H](O)[C@@H](COP(=O)(O)OP(=O)(O)OP(=O)(O)O)O2)c(=O)n1 [dCTP],"primer extension, denaturing gel","hPol θ PD; 25/40 dsDNA, templating G, MgCl2 or MnCl2, pH 8.0, 37 °C, steady state","Both enzymes were able to incorporate single nucleotides, correct and incorrect as well"
B1,Kd,[1],19.8 ± 3.1 nM
